Source: US12723063B2, “GIPR-agonist compounds” (Eli Lilly and Company, priority 2019, dated 2026)
*1 amine or outer side, *2 acyl side, *3 side chain or, on linkers, in order; H or OH if unused. Where a SMILES comes first, the peptide text is derived from it. Side-chain parts run from the residue outwards. [ ]: non-standard residue; d: D form. The star is where a group is joined. C20 diacid = O=C(O)CCCCCCCCCCCCCCCCCCC(=O)*; γGlu = O=C(O)[C@H](CCC(=O)[*:2])N[*:1]; αMeL = CC(C)C[C@](C)(N)C(=O)O; AEEA = NCCOCCOCC(=O)O; Aib = CC(C)(N)C(=O)O

Assays:
[1] = target: T1, human GLP-1 receptor (GLP-1R) (Homo sapiens, UniProt P43220); experiment: cAMP functional assay (HTRF) in HEK293 cells in presence of 0.1% casein; type: cell-based; conditions: HEK293 cells expressing human GLP-1R, geometric mean, read-out: hGLP1R cAMP Rel EC50 nM (SEM, n)
T1 construct: expressed in transfected cells; host or cells: HEK293
Protocol: (§1) Each receptor over-expressing cell line (20 μl) is treated with the test peptide in DMEM (Gibco Cat #31053) supplemented with 0.1% Casein (Sigma Cat #C4765), 250 μM IBMX, 1× GlutaMAX™ (Gibco Cat #35050), and 20 mM HEPES (HyClone Cat #SH30237.01) in a 20 μl assay volume. After incubating for 60 minutes at room temperature, the resulting increase in intracellular CAMP is quantitatively determined using the CisBio CAMP Dynamic 2 HTRF Assay Kit (62AM4PEJ). The Lysis buffer containing cAMP-d2 conjugate (20 μl) and the antibody anti-cAMP-Eu3+-Cryptate (20 μl) are then added to determine the cAMP level. After incubating 60 minutes at room temperature, HTRF signal is detected with an Envision 2104 plate reader (PerkinElmer). Fluorescent emission at 620 nm and at 665 nm is measured and the ratio between 620 nm and at 665 nm is calculated and then are converted to nM cAMP per well using a cAMP standard curve. Dose response curves of compounds are plotted as the percentage of stimulation normalized to minimum (buffer only) and maximum (maximum concentration of each control ligand) values and analyzed using a four parameter non-linear regression fit with a variable slope (Genedata Screener 13). EC50 is the concentration of compound causing half-maximal simulation in a dose response curve. A relative EC50 value is derived by non-linear regression analysis using the percent maximal response vs, the concentration of peptide added, fitted to a four-parameter logistic equation.
(§2) Intracellular cAMP levels are determined by extrapolation using a standard curve. Dose response curves of compounds are plotted as the percentage of stimulation normalized to minimum (buffer only) and maximum (maximum concentration of each control ligand) values and analyzed using a four-parameter non-linear regression fit with a variable slope (Genedata Screener 13). EC50 is the concentration of compound causing half-maximal simulation in a dose response curve. Each relative EC50 value for the geometric mean calculation is determined from a curve fitting.
(§3) Concentration response curves of compounds are plotted as the percentage of stimulation normalized to minimum (buffer only) and maximum (maximum concentration of each control ligand) values and analyzed using a four-parameter non-linear regression fit with a variable slope (Genedata Screener 13). EC50 is the concentration of compound causing half-maximal simulation in a dose response curve. […] The standard error of the mean is reported:
(§4) [formula] • The log transform accounts for the EC50 values falling on a multiplicative, rather than an arithmetic scale.
(§5) For illustration, as shown by Example 1, the peptide is tested in 8 runs of the hGIPR CAMP assay. […] Accordingly, each Example will use the geometric mean of those values to normalize the Example assay runs.

[2] = target: T2, human glucagon receptor (GcgR) (Homo sapiens, UniProt P47871); experiment: as above; type: cell-based; conditions: HEK293 cells expressing human GcgR, geometric mean, read-out: hGcgR cAMP Rel EC50 nM (SEM, n)
T2 construct: expressed in transfected cells; host or cells: HEK293
Protocol: as §1, §2, §3, §4, §5

[3] = target: T3, human glucose-dependent insulinotropic peptide receptor (GIPR) (Homo sapiens, UniProt P48546); experiment: as above; type: cell-based; conditions: HEK293 cells expressing human GIPR, geometric mean, read-out: hGIPR cAMP Rel EC50 nM (SEM, n)
T3 construct: expressed in transfected cells; host or cells: HEK293
T3 sequence (P48546 22-466): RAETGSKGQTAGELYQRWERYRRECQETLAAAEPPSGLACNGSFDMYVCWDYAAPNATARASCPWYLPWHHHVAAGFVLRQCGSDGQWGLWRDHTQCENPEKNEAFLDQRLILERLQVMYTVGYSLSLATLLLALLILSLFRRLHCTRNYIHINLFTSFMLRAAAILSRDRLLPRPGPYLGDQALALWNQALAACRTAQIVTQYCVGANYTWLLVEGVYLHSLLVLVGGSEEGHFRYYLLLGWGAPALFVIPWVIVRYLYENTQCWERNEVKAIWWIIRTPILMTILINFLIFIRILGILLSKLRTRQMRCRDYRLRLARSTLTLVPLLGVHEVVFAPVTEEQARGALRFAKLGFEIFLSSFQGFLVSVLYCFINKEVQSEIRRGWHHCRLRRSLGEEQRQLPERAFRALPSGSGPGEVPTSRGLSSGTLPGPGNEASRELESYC
Protocol: as §1, §2, §3, §4, §5

[4] = system: CD4+ T cells (CD8+ T cell-depleted PBMCs); experiment: CD4+ T cell proliferation assay (immunogenicity assessment); type: cell-based, human; conditions: 0.33 μM, 7 days
Protocol: Protein therapeutics that induce less than 30% positive response in the CD4+ T cell proliferation assay are associated with a low risk of immunogenicity. Briefly, to assess the propensity for a clinical immunogenic response to the compounds of Examples 1, 2, 3, 5, and 6, CD8+ T cell-depleted peripheral blood mononuclear cells (PBMCs) are prepared and labeled with carboxyfluorescein diacetate succinimidyl ester (CFSE; Invitrogen) from a cohort of 10 healthy donors with diverse human leukocyte antigen (HLA) class II haplotypes. Each donor is tested in triplicate with 2.0 mL media control, keyhole limpet hemocyanin (KLH: 0.33 μM), and the compounds of Examples 1, 2, 3, 5, and 6 (0.33 μM). Cultures are incubated for 7 days at 37° C. with 5% CO2. On day 7, samples are analyzed by flow cytometry using a BD LSR II Fortessa (Becton Dickinson; Franklin Lakes, NJ), equipped with a high throughput sampler (HTS). Data is analyzed using FlowJo® Software (FlowJo, LLC/TreeStar; Ashland, OR).
• Cell Division Index (“CDI”): proportion of divided CD4+ T cells to the total number of CD4+ T cells in stimulated versus unstimulated samples.

human GIPR = target: T4, human GIPR (Homo sapiens, UniProt P48546); experiment: [125I]-GIP binding, SPA with WGA beads, 0.1% bacitracin; conditions: geometric mean, read-out: hGIPR Ki
T4 construct: expressed in transfected cells; crude membranes
T4 sequence (P48546 22-466): T3 sequence (P48546 22-466)
Protocol: (§6) Stably transfected cell lines are prepared by subcloning receptor cDNA into a pcDNA3 expression plasmid and transfected into human embryonic kidney (HEK) 293 (hGcgR and hGLP-1R) or Chinese Hamster Ovary (CHO) (hGIPR) cells followed by selection with Geneticin (hGLP-1R and hGIPR) or hygromycin B (hGcgR).
(§7) Two methods are used for the preparation of crude cell membranes.
(§8) Method 1: Frozen cell pellets are lysed on ice in hypotonic buffer containing 50 mM Tris HCl, pH 7.5, and Roche Complete™ Protease Inhibitors with EDTA. The cell suspension is disrupted using a glass Potter-Elvehjem homogenizer fitted with a Teflon® pestle for 25 strokes. The homogenate is centrifuged at 4° C. at 1100× g for 10 minutes. The supernatant is collected and stored on ice while the pellets are resuspended in homogenization buffer and rehomogenized as described above. The homogenate is centrifuged at 1100× g for 10 minutes. The second supernatant is combined with the first supernatant and centrifuged at 35000× g for 1 hour at 4° C. The resulting membrane pellet is resuspended in homogenization buffer containing protease inhibitors at approximately 1 to 3 mg/mL, quick frozen in liquid nitrogen and stored as aliquots in a −80° C. freezer until use.
(§9) Method 2: Frozen cell pellets are lysed on ice in hypotonic buffer containing 50 mM Tris HCl, pH 7.5, 1 mM MgCl2, Roche Complete™ EDTA-free Protease Inhibitors and 25 units/mL DNAse I (Invitrogen). The cell suspension is disrupted using a glass Potter-Elvehjem homogenizer fitted with a Teflon® pestle for 20 to 25 strokes. The homogenate is centrifuged at 4° C. at 1800× g for 15 minutes. The supernatant is collected and stored on ice while the pellets are resuspended in homogenization buffer (without DNAse I) and rehomogenized as described above. The homogenate is centrifuged at 1800× g for 15 minutes. The second supernatant is combined with the first supernatant and centrifuged an additional time at 1800× g for 15 minutes. The overall supernatant is then centrifuged at 25000× g for 30 minutes at 4° C. The resulting membrane pellet is resuspended in homogenization buffer (without DNAse I) containing protease inhibitors at approximately 1 to 3 mg/mL and stored as aliquots in a −80° C. freezer until use.
The binding buffer contains 25 mM HEPES, pH 7.4, 2.5 mM CaCl2), 1 mM MgCl2, 0.1% (w/v) bacitracin, 0.003% (w/v) TWEEN®-20, and Roche Complete™ Protease Inhibitors without EDTA. […] Plates are sealed and mixed on a plate shaker (setting 6) for 1 minute and read with a PerkinElmer Trilux MicroBeta® scintillation counter after 2.5 to 12 hours of incubation/settling time at room temperature.
(§10) Data are analyzed using four-parameter (curve maximum, curve minimum, IC50, Hill slope) nonlinear regression routines (Genedata Screener, version 12.0.4, Genedata AG, Basal, Switzerland). […] Values for Ki are reported as the geometric mean, with error expressed as the standard error of the mean (SEM) and n is equal to the number of independent replicates (determined in assays performed on different days). […] SEM is only calculated when […] or greater. Means are expressed as geometric means with the standard error of the mean (SEM) and the number of replicates (n) indicated in parentheses.

human GLP-1R = target: T5, human GLP-1R (Homo sapiens, UniProt P43220); experiment: [125I]-GLP-1 binding, SPA with WGA beads, 0.1% bacitracin; conditions: geometric mean, read-out: hGLP1R Ki
T5 construct: expressed in transfected cells; crude membranes
Protocol: as §6, §7, §8, §9
The binding buffer contains 25 mM HEPES, pH 7.4, 2.5 mM CaCl2), 1 mM MgCl2, 0.1% (w/v) bacitracin, 0.003% (w/v) TWEEN®-20, and Roche Complete™ Protease Inhibitors without EDTA.
as §10

T2 sequence (P47871 26-477): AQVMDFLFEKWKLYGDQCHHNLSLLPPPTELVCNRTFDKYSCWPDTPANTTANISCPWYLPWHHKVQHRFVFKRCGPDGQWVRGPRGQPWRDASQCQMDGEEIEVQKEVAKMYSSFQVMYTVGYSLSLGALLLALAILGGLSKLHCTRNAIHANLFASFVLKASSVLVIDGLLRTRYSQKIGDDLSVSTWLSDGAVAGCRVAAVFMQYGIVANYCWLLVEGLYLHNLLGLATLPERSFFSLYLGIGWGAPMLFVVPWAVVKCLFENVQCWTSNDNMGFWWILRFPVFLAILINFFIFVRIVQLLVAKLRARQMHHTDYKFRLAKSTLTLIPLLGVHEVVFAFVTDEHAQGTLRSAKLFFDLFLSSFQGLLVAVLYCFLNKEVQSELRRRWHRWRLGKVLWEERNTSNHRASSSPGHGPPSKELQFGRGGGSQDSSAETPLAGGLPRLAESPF
T1 sequence (P43220 24-463): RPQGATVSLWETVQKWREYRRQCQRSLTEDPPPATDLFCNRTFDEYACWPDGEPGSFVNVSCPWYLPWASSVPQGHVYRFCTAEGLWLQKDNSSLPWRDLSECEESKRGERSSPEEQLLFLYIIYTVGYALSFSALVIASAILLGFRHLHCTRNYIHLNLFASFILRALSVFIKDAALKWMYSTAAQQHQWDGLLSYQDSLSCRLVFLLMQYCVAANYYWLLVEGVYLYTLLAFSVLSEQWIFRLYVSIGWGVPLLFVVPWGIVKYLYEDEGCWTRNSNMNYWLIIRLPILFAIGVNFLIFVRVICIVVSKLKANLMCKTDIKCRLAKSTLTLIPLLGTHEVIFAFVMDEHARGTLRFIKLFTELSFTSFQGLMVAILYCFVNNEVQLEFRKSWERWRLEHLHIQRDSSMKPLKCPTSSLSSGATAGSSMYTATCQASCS
T5 sequence (P43220 24-463): as above

Molecule	EC50 [1]	EC50 [2]	EC50 [3]	% Donor Response (n = 10) ([4]; 10 healthy donors, positive response CDI>2.5)	Median Response Strength in positive donors (CDI) ([4]; Cell Division Index)	Ki (human GIPR)	Ki (human GLP-1R)
CC[C@H](C)[C@H](NC(=O)[C@H](Cc1ccccc1)NC(=O)[C@@H](NC(=O)CNC(=O)[C@H](CCC(=O)O)NC(=O)C(C)(C)NC(=O)[C@@H](N)Cc1ccc(O)cc1)[C@@H](C)O)C(=O)N[C@@H](CO)C(=O)N[C@@H](CC(=O)O)C(=O)N[C@@H](Cc1ccc(O)cc1)C(=O)N[C@@H](CO)C(=O)N[C@H](C(=O)N[C@@](C)(CC(C)C)C(=O)N[C@@H](CC(C)C)C(=O)N[C@@H](CC(=O)O)C(=O)N[C@@H](CCCCN)C(=O)N[C@@H](CCCCNC(=O)COCCOCCNC(=O)COCCOCCNC(=O)CC[C@H](NC(=O)CCCCCCCCCCCCCCCCCCC(=O)O)C(=O)O)C(=O)N[C@@H](Cc1c[nH]cn1)C(=O)N[C@@H](CCC(N)=O)C(=O)NC(C)(C)C(=O)N[C@@H](CC(=O)O)C(=O)N[C@@H](Cc1ccccc1)C(=O)N[C@H](C(=O)N[C@@H](CCC(=O)O)C(=O)N[C@@H](Cc1ccc(O)cc1)C(=O)N[C@@H](CC(C)C)C(=O)N[C@@H](CC(C)C)C(=O)N[C@@H](CCC(=O)O)C(=O)N[C@@H](CCC(N)=O)C(=O)NCC(=O)N1CCC[C@H]1C(=O)N[C@@H](CO)C(=O)N[C@@H](CO)C(=O)NCC(=O)N[C@@H](C)C(=O)N1CCC[C@H]1C(=O)N1CCC[C@H]1C(=O)N1CCC[C@H]1C(=O)N[C@@H](CO)C(N)=O)C(C)C)[C@@H](C)CC [Example 67] (H-Y[Aib]EGTFISDYSI[αMeL]LDKK([AEEA-AEEA-γGlu-C20 diacid])HQ[Aib]DFVEYLLEQGPSSGAPPPS-NH2)	> 5000 nM	> 5000 nM	0.0627 nM				
keyhole limpet hemocyanin [KLH, reference compound]				100%	164.285 (n = 10)		
CC[C@H](C)[C@H](NC(=O)[C@H](CCCCN)NC(=O)[C@H](CC(=O)O)NC(=O)[C@H](CC(C)C)NC(=O)[C@](C)(CC(C)C)NC(=O)[C@@H](NC(=O)[C@H](CO)NC(=O)[C@H](Cc1ccc(O)cc1)NC(=O)[C@H](CC(=O)O)NC(=O)[C@H](CO)NC(=O)[C@@H](NC(=O)[C@H](Cc1ccccc1)NC(=O)[C@@H](NC(=O)CNC(=O)[C@H](CCC(=O)O)NC(=O)C(C)(C)NC(=O)[C@@H](N)Cc1ccc(O)cc1)[C@@H](C)O)[C@@H](C)CC)[C@@H](C)CC)C(=O)N[C@@H](CCCNC(=N)N)C(=O)N[C@@H](CCC(N)=O)C(=O)NC(C)(C)C(=O)N[C@@H](CC(=O)O)C(=O)N[C@@H](Cc1ccccc1)C(=O)N[C@H](C(=O)N[C@@H](CCC(=O)O)C(=O)N[C@@H](Cc1ccc(O)cc1)C(=O)N[C@@H](CCCCNC(=O)COCCOCCNC(=O)COCCOCCNC(=O)CC[C@H](NC(=O)CCCCCCCCCCCCCCCCCCC(=O)O)C(=O)O)C(=O)N[C@@H](CC(C)C)C(=O)N[C@@H](CCC(=O)O)C(=O)N[C@@H](C)C(=O)NCC(=O)N1CCC[C@H]1C(=O)N[C@@H](CO)C(=O)N[C@@H](CO)C(=O)NCC(=O)N[C@@H](C)C(=O)N1CCC[C@H]1C(=O)N1CCC[C@H]1C(=O)N1CCC[C@H]1C(=O)N[C@@H](CO)C(N)=O)C(C)C [Example 118] (H-Y[Aib]EGTFISDYSI[αMeL]LDKIRQ[Aib]DFVEYK([AEEA-AEEA-γGlu-C20 diacid])LEAGPSSGAPPPS-NH2)	> 5000 nM	> 5000 nM	0.0611 nM			0.0696 nM	> 920 nM
